Measurements reported in patent publication US9290476B2, “Methylene linked quinolinyl modulators of RORγt” (Janssen Pharmaceutica NV, priority 2012, dated 2016).
Structures can show the parent of a compound that is named as a salt. Where two headings read alike, the source gives them in different places.

Key:
[1] = test system: IL-17 production by CD4 T cells; assay: Human Th17 assay (IL-17 production by CD4 T cells under Th17 differentiation); assay type: cell-based; details: read-out: Human Th17 Assay, IC50 μM
Excerpt: The human Th17 assay tests the effect of RORγt modulatory compounds on IL-17 production by CD4 T cells under conditions which favor Th17 differentiation.
Total CD4^+ T cells were isolated from the peripheral blood mononuclear cells (PBMC) of healthy donors using a CD4^+ T cell isolation kit II, following the manufacturer's instructions (Miltenyi Biotec). Cells were resuspended in a medium of RPMI-1640 supplemented with 10% fetal bovine serum, penicillin, streptomycin, glutamate, and β-mercaptoethanol and were added to 96-well plates at 1.5×10^5 per 100 μL per well. 50 μL of compound at titrated concentrations in DMSO were added into each well at final DMSO concentration at 0.2%. Cells were incubated for 1 hour, then 50 μL of Th17 cell differentiation medium was added to each well. The final concentrations of antibodies and cytokines (R&D Systems) in differentiation medium were: 3×10^6/mL anti-CD3/CD28 beads (prepared using human T cell activation/expansion kit, Miltenyi Biotec), 10 μg/mL anti-IL4, 10 μg/mL anti-IFNγ, 10 ng/mL IL1β, 10 ng/mL IL23, 50 ng/mL IL6, 3 ng/mL TGFβ and 20 U/mL IL2. Cells were cultured at 37° C. and 5% CO2 for 3 days. Supernatants were collected and the accumulated IL-17 in culture was measured by using MULTI-SPOT® Cytokine Plate following manufacture's instruction (Meso Scale Discovery). The plate was read using Sector Imager 6000, and IL-17 concentration was extrapolated from the standard curve. The IC50s were determined by GraphPad.

human RORγt LBD = human RORγt LBD (Homo sapiens (Human), UniProt P51449); assay: RORγt reporter assay (GAL4-RORγt LBD luciferase in HEK293T cells); assay type: cell-based; details: for IC50: 24 hours compound treatment; for inhibition at 6 µM: HEK-293T, read-out: RORγt reporter Assay, % inhibition @ 6 μM, HEK293T cells, 6 μM
human RORγt LBD, sequence (P51449 258-518): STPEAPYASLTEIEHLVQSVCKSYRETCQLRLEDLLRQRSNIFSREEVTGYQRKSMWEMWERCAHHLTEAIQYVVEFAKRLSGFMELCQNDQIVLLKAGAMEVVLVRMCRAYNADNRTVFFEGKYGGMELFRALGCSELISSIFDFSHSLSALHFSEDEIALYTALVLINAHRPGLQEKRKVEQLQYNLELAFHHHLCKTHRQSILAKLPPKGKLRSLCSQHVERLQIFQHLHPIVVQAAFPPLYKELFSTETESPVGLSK
How it was run: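 HEK293T cells transiently co-transfected with GAL4-DBD–wild-type human RORγt LBD (pBIND) and GAL4-responsive firefly luciferase reporter (pGL4.31); renilla luciferase from pBIND normalises transfection/viability. Cells in phenol-red-free DMEM, 5% lipid-reduced FCS, treated with compound 24 h. Firefly/renilla ratio plotted against compound concentration.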

[2] = target: human RORγt ligand binding domain (RORγt LBD) (Homo sapiens (Human), UniProt P51449); assay: RORγt ThermoFluor assay (thermal shift binding affinity); details: estimated from thermal shift
human RORγt ligand binding domain (RORγt LBD), sequence (P51449 other isoform, or with tags, fused parts or gaps): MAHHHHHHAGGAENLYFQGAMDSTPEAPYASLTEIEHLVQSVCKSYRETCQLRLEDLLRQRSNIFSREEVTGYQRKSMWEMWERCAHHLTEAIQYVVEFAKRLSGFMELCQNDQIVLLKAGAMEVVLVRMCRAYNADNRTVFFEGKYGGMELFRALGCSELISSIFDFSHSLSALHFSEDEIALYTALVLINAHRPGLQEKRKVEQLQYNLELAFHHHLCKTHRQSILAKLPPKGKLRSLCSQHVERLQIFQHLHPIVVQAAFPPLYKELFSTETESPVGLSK
How it was run: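 Thermal shift used 0.065 mg/mL RORγt LBD with 60 μM 1,8-ANS in 100 mM Hepes pH 7.0, 10 mM NaCl, 2.5 mM GSH and 0.002% Tween-20, heated at 1 °C/min. Fluorescence was excited at 380–400 nm and emission read at 500 nm.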

[3] = Homo sapiens, CD4+ T, 72 h, human CD4+ T cells, IL-17 after 3 days

| Kd [2] [µM] | IC50 (human RORγt LBD; HEK293T cells) [µM] | inhibition at 6 µM (human RORγt LBD) [%] | SMILES | IC50 ([1]; Homo sapiens, CD4+ T, 72 h) [µM] | further results |
| --- | --- | --- | --- | --- | --- |
| – | – | – | COc1nc2ccc(C(O)(c3ccc(Cl)cc3)c3cncn3C)cc2c(Cl)c1Cc1ccc(-n2cccn2)cc1 (single isomer, unassigned) [Example 33C, (3-(4-(1H-pyrazol-1-yl)benzyl)-4-chloro-2-methoxyquinolin-6-yl)(4-chlorophenyl)(1-methyl-1H-imidazol-5-yl)methanol] | 0.067 | – |
| – | – | – | COc1nc2ccc(C(O)(c3ccc(C(F)(F)F)nc3)c3cncn3C)cc2c(Cl)c1Cc1ccc(-n2cccn2)cc1 (single isomer, unassigned) [Example 35B, (3-(4-(1H-pyrazol-1-yl)benzyl)-4-chloro-2-methoxyquinolin-6-yl)(1-methyl-1H-imidazol-5-yl)(6-(trifluoromethyl)pyridin-3-yl)methanol] | 0.074 | – |
| – | – | – | COc1nc2ccc(C(O)(c3ccc(C(F)(F)F)nc3)c3cncn3C)cc2c(Cl)c1Cc1ccc(-n2cccn2)cc1 (single isomer, unassigned) [Example 35C, (3-(4-(1H-pyrazol-1-yl)benzyl)-4-chloro-2-methoxyquinolin-6-yl)(1-methyl-1H-imidazol-5-yl)(6-(trifluoromethyl)pyridin-3-yl)methanol] | – | IC50 [1]: 0.051 µM |
| – | – | – | COc1nc2ccc(C(O)(c3cncn3C)C3CCN(C(C)=O)CC3)cc2c(Cl)c1Cc1ccc(-n2cccn2)cc1 (single isomer, unassigned) [Example 60B, 1-(4-((3-(4-(1H-Pyrazol-1-yl)benzyl)-4-chloro-2-methoxyquinolin-6-yl)(hydroxy)(1-methyl-1H-imidazol-5-yl)methyl)piperidin-1-yl)ethanone] | – | IC50 [1, 3]: 0.17 µM |
| – | – | – | COc1nc2ccc(C(O)(c3cncn3C)C3CCN(C(C)=O)CC3)cc2c(Cl)c1Cc1ccc(-n2cccn2)cc1 (single isomer, unassigned) [Example 60C, 1-(4-((3-(4-(1H-Pyrazol-1-yl)benzyl)-4-chloro-2-methoxyquinolin-6-yl)(hydroxy)(1-methyl-1H-imidazol-5-yl)methyl)piperidin-1-yl)ethanone] | – | IC50 ([1]; human CD4+ T cells, IL-17 after 3 days): 0.16 µM |
| – | – | – | COc1nc2ccc(C(O)(c3ccc(C(F)(F)F)nc3)c3cncn3C)cc2c(Cl)c1Cc1ccc(C(F)(F)F)cc1 (single isomer, unassigned) [Example 62B, (4-Chloro-2-methoxy-3-(4-(trifluoromethyl)benzyl)quinolin-6-yl)(1-methyl-1H-imidazol-5-yl)(6-(trifluoromethyl)pyridin-3-yl)methanol] | 0.1 | – |
| – | – | – | COc1nc2ccc(C(O)(c3ccc(C(F)(F)F)nc3)c3cncn3C)cc2c(Cl)c1Cc1ccc(C(F)(F)F)cc1 (single isomer, unassigned) [Example 62C, (4-Chloro-2-methoxy-3-(4-(trifluoromethyl)benzyl)quinolin-6-yl)(1-methyl-1H-imidazol-5-yl)(6-(trifluoromethyl)pyridin-3-yl)methanol] | – | IC50 [1]: 0.064 µM |
| – | – | – | COc1nc2ccc(C(O)(c3ccc(Cl)cc3)c3cncn3C)cc2c(Cl)c1Cc1ccc(C#N)cc1 (single isomer, unassigned) [Example 63C, 4-((4-Chloro-6-((4-chlorophenyl)(hydroxy)(1-methyl-1H-imidazol-5-yl)methyl)-2-methoxyquinolin-3-yl)methyl)benzonitrile] | 0.038 | – |
| – | – | – | COc1nc2ccc(C(O)(c3ccc(Cl)cc3)c3cncn3C)cc2c(Cl)c1Cc1ccc(-n2cncn2)cc1 (single isomer, unassigned) [Example 64C, (3-(4-(1H-1,2,4-triazol-1-yl)benzyl)-4-chloro-2-methoxyquinolin-6-yl)(4-chlorophenyl)(1-methyl-1H-imidazol-5-yl)methanol] | – | RORγt reporter Assay, % inhibition @ 6 μM (human RORγt LBD; HEK293T cells, 6 μM): 94%; IC50 [1, 3]: 0.086 µM |
| – | – | – | COc1nc2ccc(C(O)(c3ccc(Cl)cc3)c3cncn3C)cc2c(Cl)c1Cc1ccc(-n2cccn2)cc1 (stereo not shown) [Example 33A, (3-(4-(1H-Pyrazol-1-yl)benzyl)-4-chloro-2-methoxyquinolin-6-yl)(4-chlorophenyl)(1-methyl-1H-imidazol-5-yl)methanol] | 0.14 | – |
| – | – | – | COc1nc2ccc(C(O)(c3ccc(C(F)(F)F)nc3)c3cncn3C)cc2c(Cl)c1Cc1ccc(-n2cccn2)cc1 (stereo not shown) [Example 35A, (3-(4-(1H-Pyrazol-1-yl)benzyl)-4-chloro-2-methoxyquinolin-6-yl)(1-methyl-1H-imidazol-5-yl)(6-(trifluoromethyl)pyridin-3-yl)methanol.TFA] | 0.3 | – |
| – | – | – | COc1nc2ccc(C(O)(c3cnnn3C)c3cnnn3C)cc2c(Cl)c1Cc1ccc(-n2cccn2)cc1 [Example 61, (3-(4-(1H-Pyrazol-1-yl)benzyl)-4-chloro-2-methoxyquinolin-6-yl)bis(1-methyl-1H-1,2,3-triazol-5-yl)methanol] | 0.0042 | – |
| 0.018 | 0.044 | 115 | CON(C)c1nc2ccc(C(O)(c3ccc(C(F)(F)F)nc3)c3cncn3C)cc2c(Cl)c1Cc1ccc(-n2cccn2)cc1 (stereo not shown) [Example 67A, (3-(4-(1H-Pyrazol-1-yl)benzyl)-4-chloro-2-(methoxy(methyl)amino)quinolin-6-yl)(1-methyl-1H-imidazol-5-yl)(6-(trifluoromethyl)pyridin-3-yl)methanol TFA?] | – | – |
| 0.0083 | 0.21 | 99 | Cn1cncc1C(O)(c1ccc(C(F)(F)F)nc1)c1ccc2nc(N3CCC3)c(Cc3ccc(-n4cccn4)cc3)c(Cl)c2c1 (stereo not shown) [Example 68A, (3-(4-(1H-Pyrazol-1-yl)benzyl)-2-(azetidin-1-yl)-4-chloroquinolin-6-yl)(1-methyl-1H-imidazol-5-yl)(6-(trifluoromethyl)pyridin-3-yl)methanol] | – | – |
| 0.05 | 0.17 | 103 | COc1nc2ccc(C(O)(c3ccc(Cl)cc3)c3cncn3C)cc2c(C#N)c1Cc1ccc(-n2cccn2)cc1 (stereo not shown) [Example 69, 3-(4-(1H-Pyrazol-1-yl)benzyl)-6-((4-chlorophenyl)(hydroxy)(1-methyl-1H-imidazol-5-yl)methyl)-2-methoxyquinoline-4-carbonitrile] | – | – |
| 0.00012 | 0.0021 | 104 | COc1nc2ccc(C(O)(c3cnnn3C)c3cnc(C)n3C)cc2c(C#N)c1Cc1ccc(C(F)(F)F)cc1 (stereo not shown) [Example 81A, 6-((1,2-Dimethyl-1H-imidazol-5-yl)(hydroxy)(1-methyl-1H-1,2,3-triazol-5-yl)methyl)-2-methoxy-3-(4-(trifluoromethyl)benzyl)quinoline-4-carbonitrile] | – | – |
| 0.00077 | 0.021 | 102 | CCc1nc2ccc(C(O)(c3cnnn3C)C3CN(C(=O)OC(C)(C)C)C3)cc2c(Cl)c1Cc1ccc(C(F)(F)F)cc1 (stereo not shown) [Example 89, tert-Butyl 3-((4-chloro-2-ethyl-3-(4-(trifluoromethyl)benzyl)quinolin-6-yl)(hydroxy)(1-methyl-1H-1,2,3-triazol-5-yl)methyl)azetidine-1-carboxylate] | – | – |
| 0.00044 | 0.011 | 98 | CCc1nc2ccc(C(O)(c3cnnn3C)C3CN(C(C)=O)C3)cc2c(Cl)c1Cc1ccc(C(F)(F)F)cc1 (stereo not shown) [Example 90A, 1-(3-((4-Chloro-2-ethyl-3-(4-(trifluoromethyl)benzyl)quinolin-6-yl)(hydroxy)(1-methyl-1H-1,2,3-triazol-5-yl)methyl)azetidin-1-yl)ethanone] | – | – |
| 0.012 | 0.069 | 98 | COc1nc2ccc(C(O)(c3ccc(C(F)(F)F)nc3)c3cncn3C)cc2c(Cl)c1Cc1ccc(C(F)(F)F)nc1 (stereo not shown) [Example 94A, (4-Chloro-2-methoxy-3-((6-(trifluoromethyl)pyridin-3-yl)methyl)quinolin-6-yl)(1-methyl-1H-imidazol-5-yl)(6-(trifluoromethyl)pyridin-3-yl)methanol] | – | – |
| 0.0019 | 0.0078 | 99 | COc1nc2ccc(C(O)(c3ccc(C#N)cc3)c3cncn3C)cc2c(C#N)c1Cc1ccc(C(F)(F)F)cc1 (stereo not shown) [Example 96A, 6-((4-cyanophenyl)(hydroxy)(1-methyl-1H-imidazol-5-yl)methyl)-2-methoxy-3-(4-(trifluoromethyl)benzyl)quinoline-4-carbonitrile] | – | – |
